Laboratory results published in patent US20150148235A1, “HERBICIDE-RESISTANT SUNFLOWER PLANTS WITH MULTIPLE HERBICIDE RESISTANT ALLELES OF AHASL1 AND METHODS OF USE” (NIDERA S.A., priority 2013, published 2015).

Test system: sunflower hybrids and lines (A122T, A205V, A205V/A122T)
Test: Field trial North Dakota 2006, phytotoxicity ratings after imazamox or imazapyr, Example 3
Assay type: in vivo, Helianthus annuus
Settings: for phytotoxicity: 200 g ai/ha
Procedure: • Spray volume: 10 gallons per acre (GPA) (or 100 liters/ha) for backpack sprayer or 20 GPA (or 200 liters/ha) for tractor mounted boom • Growth Stage at Herbicide Application: 2-4 leaves
Entry 15 (WT Maintainer line) was left unsprayed in all treatment blocks.
Phytotoxicity ratings were assessed at 7 and 21 days following herbicide application.
The data was subjected to an ANOVA analysis and the means from the 3 repetitions are presented in Table 7 (phytotoxicity at 7 days post-treatment) and Table 8 (phytotoxicity at 21 days post-treatment).

COCc1cnc(C2=NC(C)(C(C)C)C(=O)N2)c(C(=O)O)c1 (centres unmarked) [imazamox]
Phytotoxicity Rating (% Crop Injury) (9-line (GM40 restorer, A122 homo), 200 g ai/ha + 0.25% NIS, 7 DAT): 10.0%
Phytotoxicity Rating (% Crop Injury) (9-line (GM40 restorer, A122 homo), 200 g ai/ha + 0.25% NIS, 21 DAT): 3.3%
Phytotoxicity Rating (% Crop Injury) (10-hybrid (IMI CMS × GM40 restorer, A205/A122 hetero/double), 50 g ai/ha + 0.25% NIS, 7 DAT): 3.3%
Phytotoxicity Rating (% Crop Injury) (10-hybrid (IMI CMS × GM40 restorer, A205/A122 hetero/double), 50 g ai/ha + 0.25% NIS, 21 DAT): 0.0%
Phytotoxicity Rating (% Crop Injury) (10-hybrid (IMI CMS × GM40 restorer, A205/A122 hetero/double), 100 g ai/ha + 0.25% NIS, 7 DAT): 3.3%
Phytotoxicity Rating (% Crop Injury) (10-hybrid (IMI CMS × GM40 restorer, A205/A122 hetero/double), 100 g ai/ha + 0.25% NIS, 21 DAT): 0.0%
Phytotoxicity Rating (% Crop Injury) (10-hybrid (IMI CMS × GM40 restorer, A205/A122 hetero/double), 200 g ai/ha + 0.25% NIS, 7 DAT): 10.0%
Phytotoxicity Rating (% Crop Injury) (10-hybrid (IMI CMS × GM40 restorer, A205/A122 hetero/double), 200 g ai/ha + 0.25% NIS, 21 DAT): 1.7%
Phytotoxicity Rating (% Crop Injury) (11-hybrid (GM40 CMS × IMI restorer, A205/A122 hetero/double), 50 g ai/ha + 0.25% NIS, 7 DAT): 0.0%
Phytotoxicity Rating (% Crop Injury) (11-hybrid (GM40 CMS × IMI restorer, A205/A122 hetero/double), 50 g ai/ha + 0.25% NIS, 21 DAT): 0.0%
Phytotoxicity Rating (% Crop Injury) (11-hybrid (GM40 CMS × IMI restorer, A205/A122 hetero/double), 100 g ai/ha + 0.25% NIS, 7 DAT): 3.3%
Phytotoxicity Rating (% Crop Injury) (11-hybrid (GM40 CMS × IMI restorer, A205/A122 hetero/double), 100 g ai/ha + 0.25% NIS, 21 DAT): 0.0%
Phytotoxicity Rating (% Crop Injury) (11-hybrid (GM40 CMS × IMI restorer, A205/A122 hetero/double), 200 g ai/ha + 0.25% NIS, 7 DAT): 11.7%
Phytotoxicity Rating (% Crop Injury) (11-hybrid (GM40 CMS × IMI restorer, A205/A122 hetero/double), 200 g ai/ha + 0.25% NIS, 21 DAT): 3.3%
Phytotoxicity Rating (% Crop Injury) (12-hybrid (IMI CMS × GM40 restorer, A205/A122 hetero/double), 50 g ai/ha + 0.25% NIS, 7 DAT): 10.0%
Phytotoxicity Rating (% Crop Injury) (12-hybrid (IMI CMS × GM40 restorer, A205/A122 hetero/double), 50 g ai/ha + 0.25% NIS, 21 DAT): 3.3%
Phytotoxicity Rating (% Crop Injury) (12-hybrid (IMI CMS × GM40 restorer, A205/A122 hetero/double), 100 g ai/ha + 0.25% NIS, 7 DAT): 10.0%
Phytotoxicity Rating (% Crop Injury) (12-hybrid (IMI CMS × GM40 restorer, A205/A122 hetero/double), 100 g ai/ha + 0.25% NIS, 21 DAT): 3.3%
Phytotoxicity Rating (% Crop Injury) (12-hybrid (IMI CMS × GM40 restorer, A205/A122 hetero/double), 200 g ai/ha + 0.25% NIS, 7 DAT): 11.7%
Phytotoxicity Rating (% Crop Injury) (12-hybrid (IMI CMS × GM40 restorer, A205/A122 hetero/double), 200 g ai/ha + 0.25% NIS, 21 DAT): 3.3%
Phytotoxicity Rating (% Crop Injury) (13-hybrid (GM40 CMS × GM40 restorer, A122 homo), 50 g ai/ha + 0.25% NIS, 7 DAT): 3.3%
Phytotoxicity Rating (% Crop Injury) (13-hybrid (GM40 CMS × GM40 restorer, A122 homo), 50 g ai/ha + 0.25% NIS, 21 DAT): 0.0%
Phytotoxicity Rating (% Crop Injury) (13-hybrid (GM40 CMS × GM40 restorer, A122 homo), 100 g ai/ha + 0.25% NIS, 7 DAT): 5.0%
Phytotoxicity Rating (% Crop Injury) (13-hybrid (GM40 CMS × GM40 restorer, A122 homo), 100 g ai/ha + 0.25% NIS, 21 DAT): 1.7%
Phytotoxicity Rating (% Crop Injury) (13-hybrid (GM40 CMS × GM40 restorer, A122 homo), 200 g ai/ha + 0.25% NIS, 7 DAT): 10.0%
Phytotoxicity Rating (% Crop Injury) (13-hybrid (GM40 CMS × GM40 restorer, A122 homo), 200 g ai/ha + 0.25% NIS, 21 DAT): 3.3%
Phytotoxicity Rating (% Crop Injury) (14-hybrid (GM40 CMS × GM40 restorer, A122 homo), 50 g ai/ha + 0.25% NIS, 7 DAT): 5.0%
Phytotoxicity Rating (% Crop Injury) (14-hybrid (GM40 CMS × GM40 restorer, A122 homo), 50 g ai/ha + 0.25% NIS, 21 DAT): 0.0%
Phytotoxicity Rating (% Crop Injury) (14-hybrid (GM40 CMS × GM40 restorer, A122 homo), 100 g ai/ha + 0.25% NIS, 7 DAT): 6.7%
Phytotoxicity Rating (% Crop Injury) (14-hybrid (GM40 CMS × GM40 restorer, A122 homo), 100 g ai/ha + 0.25% NIS, 21 DAT): 3.3%
Phytotoxicity Rating (% Crop Injury) (14-hybrid (GM40 CMS × GM40 restorer, A122 homo), 200 g ai/ha + 0.25% NIS, 7 DAT): 11.7%
Phytotoxicity Rating (% Crop Injury) (14-hybrid (GM40 CMS × GM40 restorer, A122 homo), 200 g ai/ha + 0.25% NIS, 21 DAT): 5.0%
Phytotoxicity Rating (% Crop Injury) (15-hybrid (WT × GM40 restorer, A122 hetero), 50 g ai/ha + 0.25% NIS, 7 DAT): 10.0%
Phytotoxicity Rating (% Crop Injury) (15-hybrid (WT × GM40 restorer, A122 hetero), 50 g ai/ha + 0.25% NIS, 21 DAT): 6.7%
Phytotoxicity Rating (% Crop Injury) (15-hybrid (WT × GM40 restorer, A122 hetero), 100 g ai/ha + 0.25% NIS, 7 DAT): 11.7%
Phytotoxicity Rating (% Crop Injury) (15-hybrid (WT × GM40 restorer, A122 hetero), 100 g ai/ha + 0.25% NIS, 21 DAT): 11.7%
Phytotoxicity Rating (% Crop Injury) (15-hybrid (WT × GM40 restorer, A122 hetero), 200 g ai/ha + 0.25% NIS, 7 DAT): 16.7%
Phytotoxicity Rating (% Crop Injury) (15-hybrid (WT × GM40 restorer, A122 hetero), 200 g ai/ha + 0.25% NIS, 21 DAT): 30.0%
Phytotoxicity Rating (% Crop Injury) (16-hybrid (WT × GM40 restorer, A122 hetero), 50 g ai/ha + 0.25% NIS, 7 DAT): 10.0%
Phytotoxicity Rating (% Crop Injury) (16-hybrid (WT × GM40 restorer, A122 hetero), 50 g ai/ha + 0.25% NIS, 21 DAT): 6.7%
Phytotoxicity Rating (% Crop Injury) (16-hybrid (WT × GM40 restorer, A122 hetero), 100 g ai/ha + 0.25% NIS, 7 DAT): 15.0%
Phytotoxicity Rating (% Crop Injury) (16-hybrid (WT × GM40 restorer, A122 hetero), 100 g ai/ha + 0.25% NIS, 21 DAT): 16.7%
Phytotoxicity Rating (% Crop Injury) (16-hybrid (WT × GM40 restorer, A122 hetero), 200 g ai/ha + 0.25% NIS, 7 DAT): 23.3%
Phytotoxicity Rating (% Crop Injury) (16-hybrid (WT × GM40 restorer, A122 hetero), 200 g ai/ha + 0.25% NIS, 21 DAT): 31.7%
phytotoxicity (heterozygous A205V/A122T lines, 21 DAT): 2-3%
phytotoxicity (homozygous A122T/A122T lines, 21 DAT): 3-5%
phytotoxicity (homozygous A205V/A205V lines, 21 DAT): 15-22%
